Consider nine compounds from patent US5869486A, “Fused pyrimidines and pyriazines as pharmaceutical compounds” (Ono Pharmaceutical Co., Ltd., priority 1995, dated 1999).

Each structure is given as a SMILES string.

Usually IC50 stands for the concentration needed to halve the response being measured.

One assay concerns TXA2 synthetase. The experiment in a line: Inhibitory effect on TXA2 synthetase (TXB2 synthesis in A23187-stimulated whole blood). The settings on record: at 10 μM; rat heparinized whole blood, Ca ionophore A23187, TXB2 by EIA; CH3SO3H salt. Type of assay: cell-based, Male Wistar rats. How it is done: Male Wistar rats were starved overnight. Five hundreds microliter of heparinized (10 U/mL) whole blood was collected from abdominal aorta using polyethylene syringe (needle: 22 or 26 G). The blood freshly drawn from animal was preincubated with 5 μL of test compound at 37° C. Five minutes later, 2.5 μL of 6 mM of Ca ionophore A23187 (final concentration of 30 μM) was added into tube, and incubation mixture was further incubated for 15 min. The reaction was terminated by centrifugation of tubes at 12,000 rpm for 2 min. TXB2 content in the supernatant was determined by EIA as follows.
One milliliter of 0.5M glycine-HCl buffer (pH 3.2) was added to 100 μL of sample. The samples were mixed well and centrifuged at 1,700 G for 10 min. at 4° C. The extracted supernatant was applied to a SEP-PAK (registered Trade Mark) C18 cartridge (Waters Assoc.). After washing with 10 mL of distilled water followed by 10 mL each of 15% ethanol and petroleum ether, the sample was eluted with 3 mL of ethyl acetate. The ethyl acetate fraction was evaporated to dryness under gentle N2 stream and the residue was dissolved in EIA buffer (final volume of 1 mL) following the addition of 300 μL of 0.01M NaHCO3 --NaOH buffer (pH 10.0). EIA for TXB2 was carried out according to a legend attached to the kit (Chyman Chemical Co., Inc.). Overall recovery of TXB2 in this extraction procedure was 90%. […]
On to `c1cn(-c2nc3c(c(NCc4ccc5c(c4)OCO5)n2)CSCC3)cn1` [Example 2(7)], for which the “Inhibitory activity on TXA2 synthetase” value is 63%.

The target in another assay is cGMP-PDE (Homo sapiens, UniProt O76074). The experiment in a line: Inhibitory effect on cGMP-PDE. Type of assay: biochemical. The following applies: PDE IC isolated from human platelets; substrate 3H-cGMP; tested as 2HCl salt (2, 2(3)), CH3SO3H salt (2(5), 2(7), 5, 6(1)), free base (4, 7, 8).
As for `c1ccc(CNc2nc(-n3ccnc3)nc3c2SCCC3)cc1` [Example 2(3)], the IC50 was determined as 100 nM. As for `c1ccc(CNc2nc(-n3ccnc3)nc3c2CSCC3)cc1` [Example 2(5)], the IC50 was 100 nM. The same measure, in the same setting: to `c1cn(-c2nc3c(c(NCc4ccc5c(c4)OCO5)n2)CSCC3)cn1` [Example 2(7)] belongs 24 nM. `Cc1csc2nc(-n3ccnc3)nc(NCc3ccccc3)c12` [Example 2, 4-benzylamino-2-(1-imidazolyl)-5-methylthieno[2,3-d]pyrimidine dihydrochloric acid]: the IC50 is 125 nM. On the same count and under the same terms, with `O=C(O)C1CCN(c2nc3c(c(NCc4ccc5c(c4)OCO5)n2)CSCC3)CC1` [Example 4] the figure was 380 nM; with `[O-][S+]1CCCc2nc(-n3ccnc3)nc(NCc3ccccc3)c21` (stereo not shown) [Example 5], 3200 nM; with `O=S1(=O)CCc2nc(-n3ccnc3)nc(NCc3ccccc3)c2C1` [Example 6(1)], 380 nM. With `c1ccc(CNc2cc(-c3ccccc3)nc3ncnn23)cc1` [Example 7], the IC50 stood at 3100 nM. On the same count and under the same terms, with `c1ccc(CNc2cc(-c3ccccc3)nn3cnnc23)cc1` [Example 8] the figure was 940 nM.
